We go through 21 molecules from US10538498B2, “1,3,4-oxadiazole sulfonamide derivative compounds as histone deacetylase 6 inhibitor, and the pharmaceutical composition comprising the same” (Chong Kun Dang Pharmaceutical Corp., priority 2015, dated 2020).

This test concerns the target T1, human recombinant HDAC6 (Homo sapiens, UniProt Q9UBN7).
T1 construct: purchased Calbiochem 382180
T1 sequence (Q9UBN7 1-1215): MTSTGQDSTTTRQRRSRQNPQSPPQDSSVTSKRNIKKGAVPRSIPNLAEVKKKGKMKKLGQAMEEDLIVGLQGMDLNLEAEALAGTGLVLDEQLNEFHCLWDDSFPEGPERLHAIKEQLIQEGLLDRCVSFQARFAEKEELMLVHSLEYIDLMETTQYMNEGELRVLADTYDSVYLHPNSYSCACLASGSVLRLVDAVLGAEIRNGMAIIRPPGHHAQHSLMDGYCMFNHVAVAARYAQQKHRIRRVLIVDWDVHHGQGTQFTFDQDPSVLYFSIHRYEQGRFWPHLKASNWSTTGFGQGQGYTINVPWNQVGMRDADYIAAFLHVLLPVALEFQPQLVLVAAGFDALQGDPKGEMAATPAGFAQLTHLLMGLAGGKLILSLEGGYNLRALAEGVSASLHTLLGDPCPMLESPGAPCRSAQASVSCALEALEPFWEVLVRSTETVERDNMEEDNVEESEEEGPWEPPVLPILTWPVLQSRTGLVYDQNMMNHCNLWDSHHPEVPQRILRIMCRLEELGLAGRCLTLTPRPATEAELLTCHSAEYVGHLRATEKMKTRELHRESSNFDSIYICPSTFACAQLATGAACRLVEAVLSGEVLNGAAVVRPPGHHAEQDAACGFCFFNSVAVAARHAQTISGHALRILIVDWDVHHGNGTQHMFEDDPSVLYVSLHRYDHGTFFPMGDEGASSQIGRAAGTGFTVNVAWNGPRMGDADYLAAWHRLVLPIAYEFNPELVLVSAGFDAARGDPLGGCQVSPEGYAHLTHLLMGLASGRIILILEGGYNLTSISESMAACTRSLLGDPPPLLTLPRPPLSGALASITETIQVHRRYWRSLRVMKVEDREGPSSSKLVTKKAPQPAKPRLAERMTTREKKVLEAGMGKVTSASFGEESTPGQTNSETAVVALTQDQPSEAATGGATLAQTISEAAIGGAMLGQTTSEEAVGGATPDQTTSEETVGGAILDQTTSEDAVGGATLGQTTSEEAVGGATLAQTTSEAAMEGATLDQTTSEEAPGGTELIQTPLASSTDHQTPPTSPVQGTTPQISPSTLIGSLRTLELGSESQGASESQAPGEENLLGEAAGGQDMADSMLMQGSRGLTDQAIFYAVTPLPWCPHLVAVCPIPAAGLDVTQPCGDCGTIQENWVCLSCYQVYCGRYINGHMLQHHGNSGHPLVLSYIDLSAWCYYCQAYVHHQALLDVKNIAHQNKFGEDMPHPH
The test is described as follows: HDAC6 enzyme activity inhibition assay (HDAC Fluorimetric Drug Discovery Kit). The format is biochemical. The conditions noted are these: for HDAC6 selectivity (fold): HDAC1 vs HDAC6; for IC50: same protocol as the HDAC1 enzyme activity test. Put shortly:
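5-fold compound dilutions + 0.3 μg enzyme + 10 μM Fluor de Lys-SIRT1 substrate, 60 min, 30° C; Developer II 30 min; fluorescence Ex 360/Em 460; IC50 by curve fit.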

`O=S(=O)(CCN1CCC(F)(F)C1)N(Cc1ccc(-c2nnc(C(F)F)o2)cc1)c1ccccc1` [Compound 11815, N-(4-(5-(difluoromethyl)-1,3,4-oxadiazol-2-yl)benzyl)-2-(3,3-difluoropyrrolidin-1-yl)-N-phenylethane-1-sulfonamide]: the “HDAC6 selectivity (fold)” value came to 1326 fold and the IC50 (usually the concentration at which inhibition is half-maximal) stood at 75.4 nM.
`Cc1cccc(N(Cc2ccc(-c3nnc(C(F)F)o3)cn2)S(C)(=O)=O)c1` [Compound 11355, N-((5-(5-(difluoromethyl)-1,3,4-oxadiazol-2-yl)pyridin-2-yl)methyl)-N-(m-tolyl)methanesulfonamide]: the “HDAC6 selectivity (fold)” value stood at 6250 fold and the IC50 worked out at 16 nM.
For `Cc1nccn1CCS(=O)(=O)N(Cc1ccc(-c2nnc(C(F)F)o2)cc1)c1ccccc1` [Compound 11806, N-(4-(5-(difluoromethyl)-1,3,4-oxadiazol-2-yl)benzyl)-2-(2-methyl-1H-imidazol-1-yl)-N-phenylethane-1-sulfonamide], the “HDAC6 selectivity (fold)” value amounted to 4000 fold and the IC50 was found to be 25 nM.
Consider `CC(=O)N1CC(N2CCC(S(=O)(=O)N(Cc3ccc(-c4nnc(C(F)F)o4)cc3F)c3ccc(F)c(Cl)c3)CC2)C1` [Compound 11447, 1-(1-acetylazetidin-3-yl)-N-(3-chloro-4-fluorophenyl)-N-(4-(5-(difluoromethyl)-1,3,4-oxadiazol-2-yl)-2-fluorobenzyl)piperidine-4-sulfonamide], for which the “HDAC6 selectivity (fold)” value is given as 5556 fold and the half-maximal inhibitory concentration (IC50) was found to be 18 nM.
In the case of `Cc1noc(C2CCN(CCS(=O)(=O)N(Cc3ccc(-c4nnc(C(F)F)o4)cc3)c3ccccc3)CC2)n1` [Compound 11764, N-(4-(5-(difluoromethyl)-1,3,4-oxadiazol-2-yl)benzyl)-2-(4-(3-methyl-1,2,4-oxadiazol-5-yl)piperidin-1-yl)-N-phenylethane-1-sulfonamide], the “HDAC6 selectivity (fold)” value was determined as 731 fold and the IC50 came to 137 nM.
As for `CN1Cc2ccc(N(Cc3ccc(-c4nnc(C(F)F)o4)cn3)S(C)(=O)=O)cc2C1` [Compound 11733, N-((5-(5-(difluoromethyl)-1,3,4-oxadiazol-2-yl)pyridin-2-yl)methyl)-N-(2-methylisoindolin-5-yl)methanesulfonamide], the “HDAC6 selectivity (fold)” value is listed as 203 fold and the concentration for half-maximal inhibition (IC50) came out at 490 nM.
As to `COC(=O)CS(=O)(=O)N(Cc1ccc(-c2nnc(C(F)F)o2)cc1F)c1ccccc1` [Compound 11231, methyl 2-(N-(4-(5-(difluoromethyl)-1,3,4-oxadiazol-2-yl)-2-fluorobenzyl)-N-phenylsulfamoyl)acetate], the “HDAC6 selectivity (fold)” value was 4545 fold and the IC50 is 22 nM.
For the molecule `COc1ccccc1C1CCN(CCS(=O)(=O)N(Cc2ccc(-c3nnc(C(F)F)o3)cc2)c2ccccc2)CC1` [Compound 11845, N-(4-(5-(difluoromethyl)-1,3,4-oxadiazol-2-yl)benzyl)-2-(4-(2-methoxyphenyl)piperidin-1-yl)-N-phenylethane-1-sulfonamide], the “HDAC6 selectivity (fold)” value was found to be 103 fold and the IC50 turned out to be 973 nM.
In the case of `O=C(C1CC1)N1CC(N2CCC(S(=O)(=O)N(Cc3ccc(-c4nnc(C(F)F)o4)cc3)c3cccc(Cl)c3)CC2)C1` [Compound 11783, N-(3-chlorophenyl)-1-(1-(cyclopropanecarbonyl)azetidin-3-yl)-N-(4-(5-(difluoromethyl)-1,3,4-oxadiazol-2-yl)benzyl)piperidine-4-sulfonamide], the “HDAC6 selectivity (fold)” value is recorded as 1440 fold and the IC50 is 69.4 nM.
With `O=S(=O)(c1cccnc1)N(Cc1ccc(-c2nnc(C(F)F)o2)cc1F)c1cccc(F)c1` [Compound 11225, N-(4-(5-(difluoromethyl)-1,3,4-oxadiazol-2-yl)-2-fluorobenzyl)-N-(3-fluorophenyl)pyridine-3-sulfonamide], the “HDAC6 selectivity (fold)” value came to 4167 fold and the IC50 was 24 nM.
Consider `CCCS(=O)(=O)N(Cc1ccc(-c2nnc(C(F)F)o2)cc1F)c1ccccc1` [Compound 11289, N-(4-(5-(difluoromethyl)-1,3,4-oxadiazol-2-yl)-2-fluorobenzyl)-N-phenylpropane-1-sulfonamide], for which the “HDAC6 selectivity (fold)” value is 3571 fold and the IC50 turned out to be 28 nM.
On the same counts, the results for `O=S(=O)(CCCN1CCOCC1)N(Cc1ccc(-c2nnc(C(F)F)o2)cc1)c1ccc(F)c(Cl)c1` [Compound 11723, N-(3-chloro-4-fluorophenyl)-N-(4-(5-(difluoromethyl)-1,3,4-oxadiazol-2-yl)benzyl)-3-morpholinopropane-1-sulfonamide] are 1272 fold and 78.6 nM.
Consider `CN1CCN(CCS(=O)(=O)N(Cc2ccc(-c3nnc(C(F)F)o3)cc2F)c2ccc(F)c(Cl)c2)CC1` [Compound 11552, N-(3-chloro-4-fluorophenyl)-N-(4-(5-(difluoromethyl)-1,3,4-oxadiazol-2-yl)-2-fluorobenzyl)-2-(4-methylpiperazin-1-yl)ethane-1-sulfonamide], for which the “HDAC6 selectivity (fold)” value is on record as 7143 fold and the IC50 amounted to 14 nM.
As to `CCS(=O)(=O)N(Cc1ccc(-c2nnc(C(F)F)o2)cn1)c1cccc(CN2CCN(C(C)=O)CC2)c1` [Compound 11388, N-(3-((4-acetylpiperazin-1-yl)methyl)phenyl)-N-((5-(5-(difluoromethyl)-1,3,4-oxadiazol-2-yl)pyridin-2-yl)methyl)ethanesulfonamide], the “HDAC6 selectivity (fold)” value is given as 1333 fold and the IC50 turned out to be 75 nM.
Take `Cc1cccc(N(Cc2ccc(-c3nnc(C(F)F)o3)cc2)S(=O)(=O)C2CCN(C3CC(O)C3)CC2)c1` (stereo not drawn) [Compound 11792, N-(4-(5-(difluoromethyl)-1,3,4-oxadiazol-2-yl)benzyl)-1-(3-hydroxycyclobutyl)-N-(m-tolyl)piperidine-4-sulfonamide]: the “HDAC6 selectivity (fold)” value came out at 1218 fold and the IC50 was 82.1 nM.
`CS(=O)(=O)N(Cc1ccc(-c2nnc(C(F)F)o2)nc1)c1ccccc1` [Compound 11174, N-((6-(5-(difluoromethyl)-1,3,4-oxadiazol-2-yl)pyridin-3-yl)methyl)-N-phenylmethanesulfonamide]: the “HDAC6 selectivity (fold)” value turned out to be 76 fold and the IC50 came to 1310 nM.
Regarding `CS(=O)(=O)N(Cc1ccc(-c2nnc(C(F)(F)F)o2)cc1F)c1ccccc1Cl` [Compound 11279, N-(2-chlorophenyl)-N-(2-fluoro-4-(5-(trifluoromethyl)-1,3,4-oxadiazol-2-yl)benzyl)methanesulfonamide], the “HDAC6 selectivity (fold)” value was found to be 901 fold and the IC50 was found to be 111 nM.
For `CCS(=O)(=O)N(Cc1ccc(-c2nnc(C(F)F)o2)cc1F)c1cccc(CN2CCN(C(C)=O)CC2)c1` [Compound 11403, N-(3-((4-acetylpiperazin-1-yl)methyl)phenyl)-N-(4-(5-(difluoromethyl)-1,3,4-oxadiazol-2-yl)-2-fluorobenzyl)ethanesulfonamide], the “HDAC6 selectivity (fold)” value is on record as 1282 fold and the concentration for half-maximal inhibition (IC50) was found to be 78 nM.
`CCS(=O)(=O)N(Cc1ccc(-c2nnc(C(F)F)o2)cc1F)c1cccc(CN2CCN(C)CC2)c1` [Compound 11405, N-(4-(5-(difluoromethyl)-1,3,4-oxadiazol-2-yl)-2-fluorobenzyl)-N-(3-((4-methylpiperazin-1-yl)methyl)phenyl)ethanesulfonamide]: the “HDAC6 selectivity (fold)” value was 1493 fold and the IC50 came to 67 nM.
On the same counts, the results for `O=S(=O)(C1CCN(C2CCC2)CC1)N(Cc1ccc(-c2nnc(C(F)F)o2)cn1)c1ccccc1` [Compound 11794, 1-cyclobutyl-N-((5-(5-(difluoromethyl)-1,3,4-oxadiazol-2-yl)pyridin-2-yl)methyl)-N-phenylpiperidine-4-sulfonamide] are 2192 fold and 45.6 nM.
With `CS(=O)(=O)N1CC(N2CCN(CCS(=O)(=O)N(Cc3ccc(-c4nnc(C(F)F)o4)cc3F)c3ccc(F)c(Cl)c3)CC2)C1` [Compound 11582, N-(3-chloro-4-fluorophenyl)-N-(4-(5-(difluoromethyl)-1,3,4-oxadiazol-2-yl)-2-fluorobenzyl)-2-(4-(1-(methylsulfonyl)azetidin-3-yl)piperazin-1-yl)ethane-1-sulfonamide], the “HDAC6 selectivity (fold)” value is on record as 4348 fold and the concentration for half-maximal inhibition (IC50) came to 23 nM.
